Laboratory results as given in patent US11969408B2, “Method for improving mitophagy in subjects” (Amazentis SA, priority 2017, dated 2024).

How the values were obtained:
Assay type in all cases: in vivo, human
[1] = Plasma pharmacokinetics after single oral dose (clinical study Part A)
Experimental: Part A: The study was a double-blind, randomized, single ascending doses, study in 24 healthy elderly male and female volunteers. Each subject was randomized for two subsequent doses in three cohorts. Part A: Single oral dose administration on D1 of each period according to the randomisation. The administration took place around 8:00 am with around 200 mL tap water, in sitting position, and under fasting conditions. Cohort 1 (8 subjects): 250 mg urolithin A (6 subjects) or placebo (2 subjects) capsule soft gel formulation then 2000 mg urolithin A or placebo capsule soft gel formulation. Cohort 3 (8 subjects): 1000 mg urolithin A (6 subjects) or placebo (2 subjects) capsule soft gel formulation. After single dosing: Cmax, tmax, AUC0-t, AUC0-∞, t1/2 From the plasma concentration-time data, the following pharmacokinetic parameters will be determined, as data permit using non-compartmental methods: maximum observed plasma concentration (Cmax) (ng/mL), time at which maximum observed plasma concentration (tmax) (h), area under the plasma concentration-time curve AUC(0-24h) (ng/mL*h) and AUC(0-∞) (ng/mL*h), and apparent terminal phase half-life (t1/2) (h). Blood sampling was performed for urolithin A concentration measurements at the exact timepoints with an authorised time window described in the table below: At each time point indicated in the table, a 6 mL blood sample was drawn into K2-EDTA coated tube. The blood samples were gently inverted a few times for complete mixing with the anticoagulant. The exact time of sample collection was recorded on the eCRF. Within 30 minutes following blood collection, each blood sample was centrifuged at 1500 g for 10 minutes at 4° C. From the plasma concentration-time data, the following pharmacokinetic parameters were determined, as data permit using non-compartmental methods: maximum observed plasma concentration (Cmax), time at which maximum observed plasma concentration (tmax), area under the plasma concentration-time curve AUC(0-24h) and AUC(0-∞), and apparent terminal phase half-life (t1/2).

[2] = system: pyruvate, lactate and glucose in plasma; experiment: Plasma metabolomics: pyruvate, lactate, glucose plasma levels; settings: 1000 mg cohort, day −1 to day 28
Experimental: (§1) Blood sampling was performed for analysis on plasma at the exact time-points described in the table below: Blood handling procedures: at each time point indicated in the table, a 6 mL blood sample was drawn into K2-EDTA coated tube. The blood samples were gently inverted a few times for complete mixing with the anticoagulant. The exact time of sample collection was recorded on the eCRF. Within 30 minutes following blood collection, each blood sample was centrifuged at 1500 g for 10 minutes at 4° C. 30 minutes after the centrifugation, the top layer of human plasma was transferred into 2 pre-labelled polypropylene tubes, containing approximately 1500 μL of plasma. Blood cells were not transferred. All sample tubes were clearly and appropriately labelled. Tubes were capped immediately from each time point and the plasma was be frozen in an upright position at approximately −80° C. for storage. Measurement of metabolites: Samples were extracted and split into equal parts for analysis on the LC/MS/MS and Polar LC platforms. Proprietary software was used to match ions to an in-house library of standards for metabolite identification and for metabolite quantitation by peak area integration. A total of 781 metabolites were quantified. Metabolomics is the study of known measurable metabolites in a sample. […]

[3] = system: plasma acylcarnitines; experiment: Plasma metabolomics: acylcarnitine plasma levels
Experimental: as §1, with “Measurement of metabolites: Samples were extracted and split into equal parts for analysis on the LC/MS/MS and Polar LC platforms.” left out, “[…] The grey line in FIG. 11 corresponds to a fold change” for “Metabolomics is the study”, “1, i.e. absence of effect. *P<0.05 correspond to” for “known measurable metabolites in”, “significant effect from D-1 (pre-dose) to D28, calculated after a repeated measures ANOVA.” for “sample.”

[4] = system: muscle and mitochondrial gene sets in vastus lateralis; experiment: Microarray analysis / Gene Set Enrichment Analysis of skeletal muscle biopsies
Experimental: Muscle biopsies were collected on Day −1 and Day 28 at pre-dose under fasted state using the Bergström biopsy needle technique. The minimal amount of each muscle tissue sample was approximately 50 mg. One third of the tissue was used for gene expression (≈50 mg), and was further divided into two equal portions: one portion for RNA analysis (≈25 mg) and one portion for DNA analysis (≈25 mg), both in a Safe-lock Tubes 2.0 ml, Eppendorf (part no. 0030.120.094). Muscle tissue was snap frozen using liquid nitrogen immediately after collection and further, long term storage will be in a −80° C. freezer. The mRNA was analysed by microarray. Quantification of mtDNA over nuclear DNA provided another measure of mitochondrial abundance. The shipment was done in dry ice by specialized carrier. Temperatures were monitored using data logger during all transport. Gene expression on available remaining muscle tissues samples was performed by microarrays. […] Microarray analysis was carried out on skeletal muscle biopsies of human subjects administered urolithin A or placebo daily for 28 days. Approximately 30,000 gene transcripts were quantified by microarray in muscle biopsies and compared (day 28 vs. day −1). Gene Set Enrichment Analysis was conducted on 6166 gene sets. […]

plasma levels of urolithin A per mg dosed (dose-normalised Cmax and AUC) ([1]; 1000 mg dosage compared with 2000 mg dosage, single oral dose): higher plasma levels | Cmax ([1]; both sexes, human, plasma, single oral dose 1000 mg urolithin A, healthy elderly subjects): 1.92 ng/mL | AUC ([1]; both sexes, human, plasma, single oral dose 1000 mg urolithin A, healthy elderly subjects, read-out: AUC out to 36 hours): 15.8 ng·h/mL | pharmacokinetics (Cmax and AUC) at 1000 mg compared with 2000 mg ([1]; oral administration, 1000 mg vs 2000 mg dosage): higher Cmax and AUC
Compound: O=c1oc2cc(O)ccc2c2ccc(O)cc12 [Urolithin A]
pyruvate, lactate and glucose levels in plasma [2]: no significant change | carnitine levels ([3]; 28 days treatment at 1000 mg): did not change | plasma short chain up to long chain acylcarnitines ([3]; after 28 days treatment at 1000 mg, day −1 to day 28): overall decrease | enrichment in GO_MITOCHONDRION genes expression ([4]; 1000 mg urolithin A group vs placebo group, 28 day treatment): significant | mitochondrial and muscle gene sets expression (normalized enrichment score) ([4]; 1000 mg/day for 28 days, day 28 vs day −1, compared with placebo, FDR<0.25): significantly upregulated
